# Measurements taken from patent publication US20220064167A1, “IMIDAZO-PYRAZOLE CARBOXAMIDE DERIVATIVES AS ANTICANCER AGENTS AND THE SYNTHESIS THEREOF” (AVIDIN KFT., priority 2018, published 2022).
# Columns and labels:
# Assay in all cases: viability assay (Table 2)
# Type in all cases: cell-based
# [1] = test system: U87MG (human glioblastoma); conditions: U-87 MG, read-out: IC50 U87
# Protocol: (§1) For viability assays cells were seeded in 96 well plates (MCF7 and 4T1: 6000, HL60: 120.000 cells/well) and incubated overnight. Compounds were dissolved in dimethyl sulfoxide (DMSO). Cells were treated with an increasing concentration of compounds having the general formula (I.) (156 nM-100 μM). Cell viability was determined after 72h incubation. Resazurin reagent (Sigma-Aldrich) was dissolved in PBS (pH 7.4) at 0.15 mg/ml concentration, sterile filtered (0.22 μm, Merck Millipore) and aliquoted at −20° C. Resazurin reagent (Sigma-Aldrich) was added at a final concentration of 25 μg/ml. After 2 hours incubation at 37° C. 5% CO2 fluorescence (530 nm excitation/580 nm emission) was recorded on a multimode microplate reader (Cytofluor4000, PerSeptive Biosytems). Viability was calculated with relation to untreated control cells and blank wells containing media without cells. IC50 values (50% inhibiting concentration) were calculated by GraphPad Prism® 5 (La Jolla, Calif., USA).
# (§2) GBM2 (human glioblastoma), HeLa (human cervical carcinoma), MIA PaCa-2 (human pancreas carcinoma) and U87MG (human glioblastoma) cells were maintained in Dulbecco's Modified Eagle Medium (DMEM) 10% fetal calf serum (FCS, Gibco). A375 (human melanoma), A549 (human lung adenocarcinoma) and HEP3B (human hepatoma) cells were maintained in Dulbecco's Modified Eagle Medium/Nutrient Mixture F-12 (DMEM/F12) 10% FCS.
# (§3) Media were supplemented with 2 mM GlutaMAX, and 100 U/mL penicillin, 100 μg/mL streptomycin (Life Technologies, Carlsbad, Calif., USA). Cell cultures were maintained at 37° C. in a humidified incubator in an atmosphere of 5% CO2 (Sanyo, Japan).
# (§4) Viability assays were performed as described in Example 102.
# HEP3B (human hepatoma) = test system: HEP3B (human hepatoma)
# Protocol: as §1, §2, §3, §4
# [2] = test system: HeLa (human cervical carcinoma)
# Protocol: as §1, §2, §3, §4
Structure (SMILES),IC50 [1],IC50 (HEP3B (human hepatoma)),IC50 [2]
"CC(C)(C)Nc1c(C(C)(C)C)[nH]c2c(C(=O)Nc3ccc(F)cc3)cnn12 [Example 60, 2-(Tert-butyl)-N-(4-fluorophenyl)-3-((tert-butyl-2-yl)amino)-1H-imidazo[1,2-b]pyrazole-7-carboxamide]",250 nM,250 nM,
"CC(C)(C)Nc1c(C(C)(C)C)[nH]c2c(C(=O)Nc3ccc(N)cc3)cnn12 [Example 83, N-(4-Aminophenyl)-2-(tert-butyl)-3-(tert-butylamino)-1H-imidazo[1,2-b]pyrazole-7-carboxamide]",,,100 nM
